The test system of one data set is HIV-1. Kind of data set: Anti-HIV activity: inhibition of HIV-1 induced cytopathic effect in CEM cells, MTT (Method B). It counts as cell-based, strain HTVL-IIIB. The settings on record: Human immunodeficiency virus 1, CCRF-CEM; for inhibition at 10 µg/mL: 10 μg/mL; for inhibition at 100 µg/mL: 100 μg/mL. Here is the method: (§1) Inhibitory activity against HIV-1 was shown by tests involving plating of susceptible human host cells which are syncytium-sensitive with and without virus in microculture plates, adding various concentrations of the test compound, incubating the plates for 7 to 9 days (during which time infected, non-drug treated control cells are largely or totally destroyed by the virus), and then determining the remaining number of viable cells with a colorometric endpoint.
(§2) Various illustrative compounds synthesized above were tested for inhibition of visna virus in vitro in a plaque reduction assay (Method A) or for inhibition of HIV-1 in a test which measured reduction of cyto-pathogenic effect in virus-infected syncytium-sensitive Leu-3a-positive CEM cells grown in tissue culture (Method B) as follows:
Tissue culture plates were incubated at 37° C. in a humidified, 5% CO2 atmosphere and observed microscopically for toxicity and/or cytopathogenic effect (CPE). At 1 hour prior to infection each test article was prepared from the frozen stock, and a 20 μl volume of each dilution (prepared as a 10 X concentration) was added to the appropriate wells of both infected and uninfected cells.
Assays were done in 96-well tissue culture plates. CEM cells were treated with polybrene at a concentration of 2 μg/ml, and an 80 μl volume of cells (1×10^4 cells) was dispensed into each well. A 100 μl volume of each test article dilution (prepared as a 2 X concentration) was added to 5 wells of cells, and the cells were incubated at 37° C. for 1 hour. A frozen culture of HIV-1, strain HTVL-IIIB, was diluted in culture medium to a concentration of 5×10^4 TCID50 per ml, and a 20 μl volume (containing 10^3 TCID50 of virus) was added to 3 of the wells for each test article concentration. […] A 20 μl volume of normal culture medium was added to the remaining wells to allow evaluation of cytotoxicity. Each plate contained 6 wells of untreated, uninfected, cell control samples and 6 wells of untreated, infected, virus control samples.
On the 9th day post-infection, the cells in each well were resuspended and a 100 μl sample of each cell suspension was removed for use in an MTT assay. A 20 μl volume of a 5 mg/ml solution of 3-(4,5-dimethylthiazol-2-yl)-2,5-diphenyltetrazolium bromide (MTT) was added to each 100 μl cell suspension, and the cells were incubated at 37° C. in 5% CO2 for 4 hours. […] A 100 μl volume of a solution of 10% sodium dodecyl sulfate in 0.01 N hydrochloric acid was added to each sample, and the samples were incubated overnight. The absorbance at 590 nm was determined for each sample using a Molecular Devices Vmax microplate reader. This assay detects drug-induced suppression of viral CPE, as well as drug cytotoxicity, by measuring the generation of MTT-formazan by surviving cells.
(Cytopathic effects are the visible damage that an infection or toxin causes in cultured cells.)

Data set [1] has as its system α-glucosidase. The settings on record: 0.1 mM; according to U.S. Pat. No. 5,025,021; cited from earlier work.
The subject of data set [2] is β-glucosidase. The settings on record: 0.1 mM; according to U.S. Pat. No. 5,025,021; cited from earlier work.
The subject of a further data set is visna virus. Description: Inhibition of visna virus growth, plaque reduction assay in sheep choroid plexus (SCP) cells (Method A). It counts as cell-based. The settings on record: Visna-maedi virus.
Text: Inhibitory activity against visna virus was shown by a conventional plaque reduction assay. Visna virus, a lentivirus genetically very similar to the AIDS virus, is pathogenic for sheep and goats. See Sonigo et al., Cell 42, 369-382 (1985); Haase, Nature 322, 130-136 (1986). Inhibition of visna virus replication in vitro as a useful model for HIV and its inhibition by test compounds has been described by Frank et al., Antimicrobial Agents and Chemotherapy 31 (9), 1369-1374 (1987).
as §2
Sheep choroid plexus (SCP) cells were obtained from American Type Culture Collection (ATCC) catalogue number CRL 1700 and were routinely passaged in vitro in Dulbecco's Modified Eagles (DME) medium supplemented with 20% fetal bovine serum (FBS). SCP cells were passaged once per week at a 1:2 or 1:3 split ratio. Visna was titrated by plaque assay in six-well plates. Virus pools were stored at -70° C.
SCP cells were cultured in 6-well plates to confluence. Wells were washed two times with serum free Minimal Essential Medium (MEM) to remove FBS. 0.2 ml of virus was added per well in MEM supplemented with 4 mM glutamine and gentamycin. After 1 hour adsorption, the virus was aspirated from each well. The appropriate concentration of each compound in 5 ml of Medium 199 (M-199) supplemented with 2% lamb serum, 4 mM glutamine, 0.5% agarose and gentamycin was added to each well. Cultures were incubated at 37° C. in a humidified 5% CO2 incubator for 3-4 weeks. To terminate the test, cultures were fixed in 10% formalin, the agar removed, the monolayers stained with 1% crystal violet and plaques counted. Each compound concentration was run in triplicate. […] 0 is no toxicity observed while 4 is total lysing of the cell monolayer. […]
Control wells without virus were completed to determine the toxicity of compounds.
A general note: Plaque reduction counts the foci of infection that form in a cell layer.

The subject of data set [3] is β-glucosidase. Kind of data set: β-glucosidase inhibition, conventional in vitro assay (p-nitrophenol release). In kind it is biochemical. The following applies: 0.1 mM. Here is the method: (§3) Inhibitory activity against α- and β-glucosidase enzymes was determined by conventional in vitro assays for these enzymes as described in U.S. Pat. No. 4,973,602. These assays involve spectrophotometric measurement of the release of p-nitrophenol from the substrate p-nitrophenyl-glycoside in the presence and absence of the test compound and comparison against a control standard that contains a known inhibitor of the enzyme.

Data set [4] has as its system α-glucosidase. Kind of data set: α-glucosidase inhibition, conventional in vitro assay (p-nitrophenol release). It counts as biochemical. The settings on record: 0.1 mM. Here is the method: as §3
The nature of data set [5]: Cytotoxicity in CEM cells (TD50) in the standard CEM cell assay for HIV inhibition. The settings on record: human. It counts as cell-based. Here is the method:
as §1
This is illustrated by a side-by-side comparison between the 2-chloro-N-butyl-DNJ of the present invention and the corresponding 2-fluoro-N-butyl-DNJ disclosed in U.S Pat. No. 5,025,021. […] Moreover, the foregoing illustrative 2-chloro derivative also is a better enzyme inhibitor than the corresponding 2-fluoro derivative. The 2-chloro derivative inhibits α-glucosidase 46% and β-glucosidase 32% at 0.1 mM, whereas the corresponding 2-fluoro derivative inhibits these enzymes at only 8% and 4% at the same concentration according to U.S. Pat. No. 5,025,021.
Assays were done in 96-well tissue culture plates. […]
On the 9th day post-infection, the cells in each well were resuspended and a 100 μl sample of each cell suspension was removed for use in an MTT assay. […] The absorbance at 590 nm was determined for each sample using a Molecular Devices Vmax microplate reader. […]

Where [6] appears, read: standard CEM cell assay, side-by-side comparison.

In brackets after ≈: the same amount, converted by molar mass. Where two headings read alike, the source gives them in different places.

Consider two compounds from patent publication US5612480A, “2-chloro and 2-bromo derivatives of 1,5-iminosugars” (priority 1995, dated 1997).

The inhibition is the percentage by which the read-out fell short of the control. What is called EC50 is the midpoint of the concentration-response curve. What is called CC50 is the concentration that lowers cell viability or growth by half. A high value points to better tolerance by the cells.

In the data set with HIV-1 (setting [6]), `CCCCN1C[C@H](F)[C@@H](O)[C@H](O)[C@H]1CO` [2-fluoro-N-butyl-DNJ, reference compound] showed an inhibition at 10 µg/mL of 0% and an inhibition at 100 µg/mL of 0%. Besides, the inhibition at 500 µg/mL in the data set on HIV-1 (500 μg/mL, standard CEM cell assay, side-by-side comparison, read-out: % inhibition of HIV) came to 3%. Besides, in the data set with α-glucosidase [1], the “% inhibition of α-glucosidase” value is recorded as 8%. The “% inhibition of β-glucosidase” value in the data set on β-glucosidase [2] is recorded as 4%.

`CCCCN1C[C@H](Cl)[C@@H](O)[C@H](O)[C@H]1CO` [Example 27, 1,5-(Butylimino)-2-chloro-1,2,5-trideoxy-D-glucitol] yielded an inhibition at 10 µM in the data set with visna virus (0.01 mM) of 39%. Further, the inhibition at 100 µM in the data set with visna virus (0.1 mM) was found to be 38%. In the data set on visna virus (1.0 mM), the inhibition at 1000 µM was 99%. In the data set on β-glucosidase [3], the “% inhibition of β-glucosidase” value came out at 32%. For the same compound, at 10 µg/mL the inhibition in the data set with HIV-1 (setting [6]) was 29.3%. For the same compound, in the data set with HIV-1 (setting [6]), the inhibition at 100 µg/mL worked out at 62.5%. Moreover, the 50% effective concentration (EC50) in the data set on HIV-1 (CEM cells, Table 2, read-out: Anti-HIV activity, inhibition of virus induced cytopathic effect, EC50) is 43 µg/mL (≈ 181 µM); in the data set with HIV-1 (standard CEM cell assay, side-by-side comparison, read-out: EC50, HIV inhibition, calculated by linear regression), 43 µg/mL (≈ 181 µM). Besides, the “% inhibition of α-glucosidase” value in the data set with α-glucosidase [4] is 46%. The midpoint of cytotoxicity in data set [5], the CC50, lay at 187 µg/mL (≈ 787 µM).
